The text below walks through data of patent US20250057873A1, “Intestinal Tumor Suppressor, PGE2 Production Inhibitor, and IL-22BP Production Promoter” (TOKYO UNIVERSITY OF SCIENCE FOUNDATION, priority 2021, published 2025).

One assay addresses T1, COX-2 (Homo sapiens, UniProt P35354).
T1 sequence (P35354 18-604): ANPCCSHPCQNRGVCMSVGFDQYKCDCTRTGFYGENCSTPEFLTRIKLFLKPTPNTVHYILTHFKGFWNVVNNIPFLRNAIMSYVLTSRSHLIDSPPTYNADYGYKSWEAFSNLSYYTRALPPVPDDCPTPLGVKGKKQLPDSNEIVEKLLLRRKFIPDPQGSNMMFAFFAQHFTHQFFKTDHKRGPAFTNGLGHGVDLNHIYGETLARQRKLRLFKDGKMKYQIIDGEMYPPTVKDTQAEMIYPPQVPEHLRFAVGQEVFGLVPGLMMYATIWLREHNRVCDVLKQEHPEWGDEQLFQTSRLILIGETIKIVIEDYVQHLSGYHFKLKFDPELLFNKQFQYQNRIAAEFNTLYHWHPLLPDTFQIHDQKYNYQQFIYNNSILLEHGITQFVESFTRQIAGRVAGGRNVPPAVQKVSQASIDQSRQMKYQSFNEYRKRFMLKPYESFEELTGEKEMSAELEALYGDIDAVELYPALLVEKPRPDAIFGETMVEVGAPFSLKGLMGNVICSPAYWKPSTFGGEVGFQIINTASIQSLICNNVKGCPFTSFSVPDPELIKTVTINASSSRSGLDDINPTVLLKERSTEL
The settings on record: cited from earlier work.

The test system of a further assay is colorectal polyps. Briefly: PGE2 administration to DSS-treated Apc^Min/+Clec7a^-/- mice. It counts as in vivo, mouse. On the procedure:
FIG. 6e: 8-week-old Apc^Min/+Clec7a^−/− mice (n=3) were administered with 2% by mass of DSS for 1 week, and then were administered with PGE2 ([…]) or PBS intraperitoneally every other day for 4 weeks. After euthanization, generation of colorectal polyps in the Apc^Min/+Clec7a^−/− mice with or without PGE2 treatment was examined in comparison to that of the Apc^Min/+ mice (n=3/group).
FIG. 6f: 8-week-old Apc^Min/+Clec7a^−/− mice (n=3) were administered with 2% by mass of DSS for 1 week, and then were administered with PGE2 ([…]) or PBS intraperitoneally every other day for 4 weeks. After euthanization, generation of colorectal polyps in the Apc^Min/+Clec7a^−/− mice with or without the PGE2 treatment was examined in comparison to that of the Apc^Min/+ mice (n=3/group).
FIG. 6g: 8-week-old Apc^Min/+Clec7a^−/− mice (n=3) were administered with 2% by mass of DSS for 1 week, and then were administered with PGE2 ([…]) or PBS intraperitoneally every other day for 4 weeks. After euthanization, populations of MHC-II^+CD11c^+DCs and MHC-II^−CD11b^+MDSCs in the polyps in the Apc^Min/+Clec7a^−/− mice were measured by flow cytometry (n=3/group).
FIG. 6h: 8-week-old Apc^Min/+Clec7a^−/− mice (n=3) were administered with 2% by mass of DSS for 1 week, and then administered with PGE2 ([…]) or PBS intraperitoneally every other day for 4 weeks. After euthanization, expression of indicated genes in the Apc^Min/+Clec7a^−/− mice was examined by qPCR (n=3/group).
Apc^Min/+ or Apc^Min/+Clec7a^−/− mice were normally raised in SPF condition for 19 to 21 weeks after being born, and polyps in small intestines emerged spontaneously. For the induction of colorectal tumor, same mice with 6 to 7 weeks old were treated with 1% by mass DSS for 1 week, and then were normally raised for another 4 to 5 weeks before sacrifice.

A further assay has as its system CRC tumor tissues. Briefly: Human CRC tumor tissues cultured in the presence of PGE2, qPCR. It counts as cell-based. On the procedure: FIG. 7i: Tumor tissues of CRC patients were collected, minced, and then cultured in the presence of PGE2 for 20 hours. Data are mean±SD of 3 wells. The data in (FIGS. 7g to 7i) are representative of two independent experiments. *p<0.05, **p<0.01, and ****p<0.0001.
(§1) Infiltrating cells in mouse/human colorectal tumor/non-tumor tissues (2×10^5) or mouse/human colorectal tumor/non-tumor tissue pieces (3 mm×3 mm cut) were cultured with Dectin-1 ligands Curdlan, OXCA, or laminarin, or with PGE2 stimulation for 20 h at 37° C. under 5% CO2 in 96-well flat-bottomed plates (Falcon, Becton Dickinson) in a volume of 0.2 ml RPMI containing 10% FBS and 1% streptomycin plus penicillin. After the culture, cells or tissues were collected and mRNA expression of tumor- or anti-tumor-associated genes was measured by qPCR described in Quantitative reverse transcription PCR section described later.
(§2) Total RNA was extracted with Mammalian Total RNA Miniprep kit (Sigma Aldrich). […]

Assay [1] concerns intestinal polyp-infiltrating cells. Briefly: PGE2 stimulation of intestinal polyp-infiltrating cells of Apc^Min/+ mice, qPCR. The conditions noted are these: PGE2 20 hours. Type of assay: cell-based, mouse. On the procedure: FIG. 6i: Tumor-infiltrating cells of the Apc^Min/+ mice (n=2, cells that were pooled during collection) were collected, stimulated with indicated doses of PGE2 for 20 hours, and then the expression of indicated genes was measured by qPCR. The data are mean±SD of 3 wells.
as §1, §2

Assay [2] has as its target T2, Dectin-1 (Mus musculus, UniProt Q6QLQ4).
T2 construct: CD11b^+ cells and CD11c^+ cells were purified from colorectal polyps with autoMACS; endogenous in cells; host or cells: primary CD11b+/CD11c+ cells or all polyp-infiltrating cells from colorectal/intestinal polyps of WT (C57BL/6J, AOM-DSS) or Apc^Min/+ mice
T2 sequence (Q6QLQ4 1-244): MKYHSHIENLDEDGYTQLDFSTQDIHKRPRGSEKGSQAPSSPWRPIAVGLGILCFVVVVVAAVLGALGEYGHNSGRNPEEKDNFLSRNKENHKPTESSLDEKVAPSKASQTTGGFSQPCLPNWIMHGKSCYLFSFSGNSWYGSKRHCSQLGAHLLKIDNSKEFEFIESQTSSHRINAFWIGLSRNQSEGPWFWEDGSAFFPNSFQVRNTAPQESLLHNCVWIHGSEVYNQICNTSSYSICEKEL
Kind of assay: Stimulation of mouse colorectal polyp CD11b+ and CD11c+ cells with OXCA, with or without laminarin pre-treatment, qPCR. Type of assay: cell-based. The settings on record: laminarin for 3 hours before OXCA 16 hours. On the procedure: FIG. 2d: WT SPF mice were administered with AOM, followed by three cycles of DSS. After 11 weeks, the mice were sacrificed, and CD11b^+ cells and CD11c^+ cells were purified from colorectal polyps with autoMACS. The purified cells were stimulated with an agonistic β-glucan OXCA, or were treated with an antagonistic β-glucan laminarin for 3 hours followed by the stimulation with OXCA for 16 hours, and the expression of Il6 and Il1b was measured by qPCR. The data in (FIGS. 2a to 2d) are representative of two independent experiments, and the data in (FIGS. 2a, 2b, and 2d) are expressed as mean±SD. *p<0.05, **p<0.01, ***p<0.001, and ****p<0.0001.
FIG. 4h: C57BL/6J mice were administered with AOM, and were administered with DSS for three cycles. […] The cells were then stimulated with OXCA and expression of Il-22 bp was measured by qPCR. […] The data in (FIG. 4a and FIGS. 4d to 4h) are representative of two independent experiments, and the data in (FIGS. 4a, 4d, and 4f to 4h) are expressed as mean±SD. **p<0.01, ***p<0.001, and ****p<0.0001.
FIG. 11d: WT mice administered with AOM followed by DSS for three cycles for 12 weeks were sacrificed, and colon CD11b^+ and CD11c^+ myeloid-derived cells were purified by autoMACS. […] The data in (FIGS. 11a, 11c, and 11d) are expressed as mean±SD. *p<0.05, **p<0.01, and ***p<0.001. […]

Assay [3] addresses T2, Dectin-1. Kind of assay: Stimulation of Apc^Min/+ polyp-infiltrating leukocytes / CD11b+ cells with Curdlan, with or without laminarin pre-treatment, qPCR. Type of assay: cell-based. The settings on record: laminarin 4 hours before Curdlan, polyp-infiltrating leukocytes. On the procedure: FIG. 5f: All polyp-infiltrating cells of the Apc^Min/+ mice were collected, and were stimulated with Curdlan for 20 hours, and then the expression of the genes involved in the PGE2 synthesis was measured by qPCR. A laminarin treatment was performed for 4 hours before the Curdlan treatment.
FIG. 5g: Purified CD11b^+ polyp-infiltrating cells of the Apc^Min/+ mice were collected, and were stimulated with Curdlan for 20 hours, and then the expression of the genes involved in the PGE2 synthesis was measured by qPCR. A laminarin treatment was performed for 4 hours before the Curdlan treatment. The data in (FIGS. 5a to 5g) are representative of two independent experiments and expressed as mean±SD. *p<0.05, **p<0.01, and ***p<0.001.
as §1, with “later. […]” for “later.”
For orientation: In qPCR the cycle at which signal appears reflects the starting amount.

For assay [4], the system named is AOM-DSS-induced colorectal polyps. Briefly: AOM-3DSS colorectal tumor model, diet supplemented with 5% laminarin. It counts as in vivo, mouse. On the procedure: FIG. 6a: Oral administration of laminarin suppresses tumor formation in the large intestine, and PGE2 administration promotes tumor formation. AOM was administered to C57BL/6J mice, and 5% by mass of laminarin-containing powdered food was administered (continued for 10 days/cycle) from 3 days before to the end of the one-week administration of DSS, for three cycles in total. At Week 11 from the first AOM administration, the mice were sacrificed and the generation of tumors in the large intestines was observed macroscopically (n=7/group).
FIG. 6b: AOM was administered to C57BL/6J mice, and 5% by mass of laminarin-containing powdered food was administered (continued for 10 days/cycle) from 3 days before to the end of the one-week administration of DSS, for three cycles in total. At Week 11 from the first AOM administration, the mice were sacrificed and the number of the colorectal polyps with indicated sizes was counted (n=7/group).
FIG. 6c: AOM was administered to C57BL/6J mice, and 5% by mass of laminarin-containing powdered food was administered (continued for 10 days/cycle) from 3 days before to the end of the one-week administration of DSS, for three cycles in total. The mice were sacrificed at Week 11 after the first AOM administration and the concentration of PGE2 in tissue homogenates was measured by the ELISA (n=7/group).
FIG. 6d: AOM was administered to C57BL/6J mice, and 5% by mass of laminarin-containing powdered food was administered (continued for 10 days/cycle) from 3 days before to the end of the one-week administration of DSS, for three cycles in total. The mice were sacrificed at Week 11 from the first AOM administration and an mRNA expression of CD11b (Itgam) was examined by qPCR (n=7/group). […]
Polyp and non-polyp tissues from mouse colon were harvested and were put into 2 ml tubes containing 500 μl lysis buffer for protein [RIPA buffer. […] After being centrifuged, supernatant of the tissue homogenate was collected and PGE2 concentration was measured by ELISA Development Kit for PGE2 (R&D systems, Minneapolis, USA). […]

Setting [5] is: after PGE2 administration, flow cytometry.
Where [6] appears, read: after PGE2 administration, qPCR.

Consider `CC(=O)Oc1ccccc1C(=O)O` [aspirin], for which the “occurrence or progression of colorectal cancer and polyps” value on COX-2 is given as “can reduce”.
In the case of `CCCCC[C@H](O)/C=C/[C@H]1[C@H](O)CC(=O)[C@@H]1C/C=C\CCCC(=O)O` [PGE2, prostaglandin E2], the polyp number result with colorectal polyps (PGE2 intraperitoneally every other day for 4 weeks, DSS-treated Apc^Min/+Clec7a^-/- mice) is given as “increased to the similar level of that in Apc^Min/+ mice”. In the assay on colorectal polyps (setting [5]), the “infiltration of CD11b+ MDSCs in polyps” value is recorded as “promoted”; the “infiltration of CD11c+ DCs and T cells in polyps” value is “suppressed”. Also, in the assay with colorectal polyps (setting [6]), the Il-22 bp expression entry was “suppressed”; the “expression of CD11b (Itgam), Arginase-1 (Arg1), Cyclin D1 (Ccnd1) and c-Myc (Myc)” value is listed as “enhanced”. Further, in the assay with CRC tumor tissues (PGE2 20 hours in vitro), the “expression of CD33 and CD11B (ITGAM)” value was “directly induced”. The “human IL-22BP expression” value with CRC tumor tissues (PGE2 20 hours, dose-dependent) is listed as “suppressed”. Also, in assay [1], the Il-22 bp expression result is on record as “directly inhibited”; the “expression of MDSC markers Arg1, CD11b and Nos2” value is recorded as “directly induced”.
Laminarin: the “effect on OXCA-induced Il6 and Il1b expression” value on Dectin-1 [2] is reported as “inhibited”. For the same compound, the “effect on Curdlan-induced Ptges3, Ptgs1 and Ptgs2 expression” value at Dectin-1 [3] was “inhibited”. For the same compound, in assay [4] (5% laminarin diet during 3 cycles of DSS, WT mice, AOM-3DSS), the “burden of colorectal polyps versus control mice” value was “significantly lower”. The “intestinal PGE2 production (tissue homogenate, ELISA)” value in assay [4] (5% laminarin diet, AOM-3DSS mice) was “suppressed”. Moreover, the “CD11b (Itgam) expression” value in assay [4] (5% laminarin diet, AOM-3DSS mice, qPCR) is listed as “reduction”.
